Here are results for eight compounds from publication PMC8584173, “The Cytotoxic Effect of Copper (II) Complexes with Halogenated 1,3-Disubstituted Arylthioureas on Cancer and Bacterial Cells” (International Journal of Molecular Sciences, 2021).

Where only a bound is given, the exact number is not on record here.

Data set [1] relates to SW620 (human metastatic colon cancer). Briefly: MTT cytotoxicity assay, SW620. It is filed as cell-based. The conditions noted are these: SW620, 72 h. The procedure: (§1) The human primary (SW480), metastatic (SW620) colon cancer, metastatic prostate cancer (PC3) and human immortal keratinocyte (HaCaT) cell lines were purchased from the American Type Culture Collection (ATCC, Rockville, USA). The cells were cultured in medium according to protocols (MEM for SW480 and SW620, RPMI 1640 for PC3 and DMEM for HaCaT cells) supplemented with 10% fetal bovine serum (FBS), penicillin (100 U/mL) and streptomycin (100 μg/mL) and cultured in 37 °C/ 5% CO2 humidified incubator. The cells were cultured until appropriate confluence was achieved (80–90%). Next, they were harvested by treatment with 0.25% trypsin (Gibco Life Technologies, USA) and used for studies.
(§2) Cells without studied compounds in medium were used as a control.
(§3) The cell viability was assessed by determination of MTT salt (3-(4,5-dimethylthiazol-2-yl)-2,5-diphenyltetrazolium bromide) conversion by mitochondrial dehydrogenase. MTT assay was performed as previously described. Experiments were repeated three times. Cell viability was presented as a percentage of MTT reduction in the treated cells versus the control cells. Number of viable cells cultured without studied compounds was assumed to be 100%. Decreased relative MTT level means decreased cell viability.

Data set [2] has as its system PC3 (human metastatic prostate cancer). Nature of the data set: MTT cytotoxicity assay, PC3. In kind it is cell-based. To be noted: for IC50: PC3, 72 h, MTT; for fold more active than cisplatin: PC3 cell lines. Here is the method: as §1, §2
as §3, with “viability. Thiourea complexes with the highest cytotoxic potential assessed by MTT determination (with the lowest IC50) were chosen for subsequent assessments of cytotoxicity mechanisms.” for “viability.”

Data set [3] deals with HaCaT (human immortal keratinocyte cell line). Nature of the data set: MTT cytotoxicity assay, HaCaT. It is filed as cell-based. To be noted: HaCaT normal cells, 72 h. Here is the method: as §1, §2
as §3, with “viability. Thiourea complexes with the highest cytotoxic potential assessed by MTT determination (with the lowest IC50) were chosen for subsequent assessments of cytotoxicity mechanisms.” for “viability.”

The next data set relates to P. aeruginosa ATCC 15442. Nature of the data set: MIC, twofold serial microdilution. It is filed as cell-based, Pseudomonas aeruginosa. The conditions noted are these: P. aeruginosa ATCC 15442, 18 h, 35 °C. The procedure:
(§4) The antimicrobial activity of the compounds was tested on Gram-positive bacteria (Staphylococcus aureus NCTC 4163, Staphylococcus aureus ATCC 25923, Staphylococcus aureus ATCC 6538, Staphylococcus aureus ATCC 29213, Staphylococcus epidermidis ATCC 12228, Staphylococcus epidermidis ATCC 35984), Gram-negative rods (Escherichia coli ATCC 10538, Escherichia coli ATCC 25922, Pseudomonas aeruginosa ATCC 15442, Pseudomonas aeruginosa ATCC 27863) and yeasts (Candida albicans ATCC 10231, Candida albicans ATCC 90028, Candida parapsilosis ATCC 22019). Hospital methicillin-resistant strains of Staphylococcus aureus and Staphylococcus epidermidis were obtained from the collection of the Department of Pharmaceutical Microbiology, Medical University of Warsaw, Poland.
(§5) Antifungal activities were assessed using Mueller–Hinton agar + 2% glucose and 0.5 µg/mL methylene blue dye medium. Sterile filter paper discs (9 mm diameter, Whatman Number 3 chromatography paper) were dripped with tested compound solutions (in dimethylsulfoxide, DMSO) to load 400 μg of a given compound per disc. Dry discs were placed on the surface of appropriate agar medium. The results (diameter of the growth inhibition zone) were read after 18 h of incubation at 35 °C. Minimal inhibitory concentration (MIC) was tested by the twofold serial microdilution method (in 96-well microtiter plates) using Mueller–Hinton broth medium (Beckton Dickinson) for bacteria or RPMI-1640 medium for Candida species, according to CLSI guidelines. The stock solution of tested agent was prepared in DMSO and diluted in sterile water. […] The final inoculum of all studied microorganisms was 10^5 CFU/ mL^−1 (colony forming units per ml). Minimal inhibitory concentrations (the lowest concentration of a tested agent that prevents visible growth of a microorganism) were read after 18 h (bacteria) or 24 h (yeasts) of incubation at 35 °C.

Another data set relates to P. aeruginosa ATCC 27853. Nature of the data set: MIC, twofold serial microdilution. It is filed as cell-based, Pseudomonas aeruginosa. The conditions noted are these: P. aeruginosa ATCC 27853, 18 h, 35 °C. Here is the method: as §4, §5
In data set [4] the test system is hospital S. aureus (MRSA). Briefly: MIC, hospital S. aureus. It is filed as cell-based, Staphylococcus aureus. To be noted: for times stronger / more potent than ciprofloxacin: clinical S. aureus rods (six for 1–4, 7, 8). The procedure:
as §4, §5

The test system of data set [5] is Bacillus subtilis H17 (rec+). Nature of the data set: Bacillus subtilis rec-assay, H17. In kind it is cell-based. To be noted: B. subtilis H17; 256 µg per disc (NOQ 2 µg per disc). Here is the method: DNA-damaging activity of compounds was tested by rec-assay using two genetically modified Bacillus subtilis strains: M45 (rec^−) and H17 (rec^+). Tested compounds were dissolved in DMSO, and 10 µL of each solution was dripped onto sterile cotton discs (Rotilabo) to load 256 µg of a given compound per 9 mm disc. Discs were placed on the surface nutrient agar plates (Difco), inoculated with 100 µL of bacterial overnight culture and incubated […] at 35 °C. After incubation, the growth inhibition zones were measured. […] Results of the genotoxicity test were estimated after 18 h of incubation at 35 °C by comparing the diameter of the inhibition zone on the B. subtilis M45 (rec^−) strain with that on the B. subtilis H17 (rec^+) strain.

Turning to `O=[N+]([O-])c1cc([N+]2=C(Nc3ccc(Cl)c(Cl)c3)[S][Cu-2]23[S]C(Nc2ccc(Cl)c(Cl)c2)=[N+]3c2ccc(Cl)c([N+](=O)[O-])c2)ccc1Cl` [Compound 5, Copper (II) complex with 1-(4-chloro-3-nitrophenyl)-3-(3,4-dichlorophenyl)thiourea], the IC50 in data set [1] stood at 10.8 ± 2.6 µM; in data set [2], 11.4 ± 2.4 µM; in data set [3], 165 ± 4.7 µM. In data set [2], the “fold more active than cisplatin” value is 1.2–3.1 fold. For the same compound, the MIC against P. aeruginosa ATCC 15442 and against P. aeruginosa ATCC 27853 was 128 µg/mL throughout. Moreover, the “times stronger / more potent than ciprofloxacin” value in data set [4] is given as 4–16 times. Further, the inhibition zone diameter in data set [5] is 17 mm.
As for `O=[N+]([O-])c1cc(NC2=[N+](c3ccc(Cl)c([N+](=O)[O-])c3)[Cu-2]3([S]2)[S]C(Nc2ccc(Cl)c([N+](=O)[O-])c2)=[N+]3c2ccc(Cl)c([N+](=O)[O-])c2)ccc1Cl` [Compound 6, Copper (II) complex with 1,3-bis(4-chloro-3-nitrophenyl)thiourea], the IC50 in data set [1] is 21.5 ± 1.4 µM; in data set [2], 20.3 ± 3.1 µM; in data set [3], 123 ± 2.1 µM. In addition, the MIC in the data set with P. aeruginosa ATCC 15442 and in the data set with P. aeruginosa ATCC 27853 was 128 µg/mL each time. In addition, the “times stronger / more potent than ciprofloxacin” value in data set [4] was 4–16 times. In data set [5], the inhibition zone diameter amounted to 16 mm.
In the case of `O=[N+]([O-])c1cc([N+]2=C(Nc3ccccc3F)[S][Cu-2]23[S]C(Nc2ccccc2F)=[N+]3c2ccc(Cl)c([N+](=O)[O-])c2)ccc1Cl` [Compound 7, Copper (II) complex with 1-(2-fluorophenyl)-3-(4-chloro-3-nitrophenyl)thiourea], the IC50 was 9.1 ± 0.8 µM in data set [1], 10.8 ± 1.3 µM in data set [2] and 138 ± 4.4 µM in data set [3]. Further, in data set [2], the “fold more active than cisplatin” value is 1.2–3.1 fold. The MIC in the data set on P. aeruginosa ATCC 15442 is greater than 256 µg/mL; with P. aeruginosa ATCC 27853, 128 µg/mL. This compound also displayed an inhibition zone diameter in data set [5] of 15 mm.
`O=[N+]([O-])c1cc([N+]2=C(Nc3cccc(Br)c3)[S][Cu-2]23[S]C(Nc2cccc(Br)c2)=[N+]3c2ccc(Cl)c([N+](=O)[O-])c2)ccc1Cl` [Compound 2, Copper (II) complex with 1-(3-bromophenyl)-3-(4-chloro-3-nitrophenyl)thiourea]: the IC50 in data set [1] was 22.3 ± 1.8 µM; in data set [2] it was 19.2 ± 2.2 µM; in data set [3], 167 ± 2.3 µM. Besides, the MIC against P. aeruginosa ATCC 15442 and in the data set on P. aeruginosa ATCC 27853 was 128 µg/mL each time. In addition, the inhibition zone diameter in data set [5] is given as 17 mm.
Take `O=[N+]([O-])c1cc([N+]2=C(Nc3ccc(Br)cc3)[S][Cu-2]23[S]C(Nc2ccc(Br)cc2)=[N+]3c2ccc(Cl)c([N+](=O)[O-])c2)ccc1Cl` [Compound 3, Copper (II) complex with 1-(4-bromophenyl)-3-(4-chloro-3-nitrophenyl)thiourea]: the IC50 in data set [1] was 19.2 ± 2.3 µM; in data set [2], 8.8 ± 0.8 µM; in data set [3], 103 ± 3.2 µM. The “fold more active than cisplatin” value in data set [2] is listed as 1.2–3.1 fold. In addition, the minimal inhibitory concentration (MIC) against P. aeruginosa ATCC 15442 came to 128 µg/mL; against P. aeruginosa ATCC 27853, 128 µg/mL; in data set [4] (all evaluated hospital S. aureus), 4 µg/mL. The compound also had an inhibition zone diameter in data set [5] of 15 mm.
As for `O=[N+]([O-])c1cc([N+]2=C(Nc3ccccc3Br)[S][Cu-2]23[S]C(Nc2ccccc2Br)=[N+]3c2ccc(Cl)c([N+](=O)[O-])c2)ccc1Cl` [Compound 1, Copper (II) complex with 1-(2-bromophenyl)-3-(4-chloro-3-nitrophenyl)thiourea], the IC50 in data set [1] was found to be 3.3 ± 0.2 µM; in data set [2], 9.7 ± 0.1 µM; in data set [3], 110 ± 3.4 µM. For the same compound, the “fold more active than cisplatin” value in data set [2] is 1.2–3.1 fold. Besides, the MIC against P. aeruginosa ATCC 15442 and against P. aeruginosa ATCC 27853 was 128 µg/mL throughout. The same compound displayed an inhibition zone diameter in data set [5] of 12 mm.
In the case of `O=[N+]([O-])c1cc([N+]2=C(Nc3ccc(F)c(Cl)c3)[S][Cu-2]23[S]C(Nc2ccc(F)c(Cl)c2)=[N+]3c2ccc(Cl)c([N+](=O)[O-])c2)ccc1Cl` [Compound 4, Copper (II) complex with 1-(3-chloro-4-fluorophenyl)-3-(4-chloro-3-nitrophenyl)thiourea], the IC50 worked out at 21.6 ± 2.9 µM in data set [1], 23.2 ± 1.6 µM in data set [2] and 121 ± 5.2 µM in data set [3]. Further, the minimum inhibitory concentration (MIC) in the data set with P. aeruginosa ATCC 15442 and with P. aeruginosa ATCC 27853 was 128 µg/mL throughout. Besides, the inhibition zone diameter in data set [5] was determined as 16 mm.
With `O=[N+]([O-])c1cc([N+]2=C(Nc3ccc(I)cc3)[S][Cu-2]23[S]C(Nc2ccc(I)cc2)=[N+]3c2ccc(Cl)c([N+](=O)[O-])c2)ccc1Cl` [Compound 8, Copper (II) complex with 1-(4-iodophenyl)-3-(4-chloro-3-nitrophenyl)thiourea], the IC50 in data set [1] was found to be 17.8 ± 1.3 µM; in data set [2], 4.3 ± 0.5 µM; in data set [3], 103 ± 3.4 µM. In data set [2], the “fold more active than cisplatin” value is on record as 1.2–3.1 fold. Further, the minimum inhibitory concentration (MIC) in the data set with P. aeruginosa ATCC 15442 and in the data set on P. aeruginosa ATCC 27853 was 128 µg/mL each time. Also, the inhibition zone diameter in data set [5] turned out to be 14 mm.
